Patent publication US5599806A, “Hydrazino and hydroxyamino-14-β-hydroxyandrostane derivatives active on the cardiovascular system processes for their preparation and pharmaceutical compositions containing same” (Sigma-Tau Industrie Farmaceutiche Riunite S.p.A., priority 1994, dated 1997)
Like-named read-outs stand apart in the source and are kept apart here.

What was measured:
[1] = target: Na^+, K^+ -ATPase receptor; test: displacement of the specific ^3 H-ouabain binding from the Na^+, K^+ -ATPase receptor; conditions: ^3 H-ouabain displacement, purified Na^+
Source text: a) displacement of the specific ^3 H-ouabain binding from the Na^+, K^+ -ATPase receptor purified according to Jorghensen (Jorghensen P., BBA, 1974, 356, 36) and Erdmann (Erdmann E. et al., Arzneim. Forsh., 1984, 34, 1314);

[2] = target: T1, purified Na^+, K^+ -ATPase (Canis lupus familiaris, UniProt P50997); test: inhibition of the activity of the purified Na^+, K^+ -ATPase (hydrolysis of ^32 P-ATP); type: biochemical
T1 construct: from tissue
Source text: To test the affinity for the receptor site of the Na^+, K^+ -ATPase and the inhibition of the activity of the enzyme, the following tests were used:
b) inhibition of the activity of the purified Na^+, K^+ -ATPase measured as % of hydrolysis of ^32 P-ATP in the presence and in the absence of the tested compound (Doucet A. et al., Am. J. Physiol., 1986, 251, F851)

[3] = system: spontaneous hypertensive rats (MHS); test: effect of 5 week-treatment in spontaneous hypertensive rats (MHS) on the development of hypertension (SBP and HR, tail cuff method); type: in vivo, rat; conditions: 0.1 mg/Kg/os daily, 5 weeks, in Methocel 0.5% w/v
Method: Systolic blood pressure (SBP) and hear rate (HR) were measured, by the tail cuff method, in young prehypertensive male rats (MHS or SHR) strains before the development of hypertension (4 weeks of age) for recording the basal values of SBP. Groups of 7 rats were formed and subdivided in control and treated groups.
The compound, suspended in Methocel 0.5% (w/v), was orally given daily for at least 5 weeks to the treated groups. The control group received only Methocel.
SBP and HR were measured weekly 6 and 24 hrs after treatment. After 5 weeks of treatment, when hypertension was fully developed in the control group (9 weeks of age), washout was started for at least one week, to verify whether the treatment maintained blood pressure low or reestablished the basal values.
(Takeda K. et al., Japan J. Pharmacol., 1979, 29, 171; Takeda K. et al. Japan J. Pharmacol., 1982, 32, 283; Richer C. et al. Eur. J. Pharmacol, 1978, 47,393).

[4] = hydrolysis of ^32 P-ATP, purified Na^+, K^+ -ATPase, read-out: Inhibitory Activity (-log IC50) (converted)

Structure (SMILES)	Binding ^3 H-Ouab. Displacement (-log IC50) [1]	IC50 [2, 4] [µM]	IC50 [2] [µM]	SBP ([3]; controls 170 +/- 5.5)	HR ([3]; controls 378 +/- 12.0)
C[C@]12CC[C@H](O)C[C@H]1CC[C@@H]1[C@@H]2CC[C@]2(C)[C@@H](CNNC(=N)N)CC[C@]12O [Comp. I-aa, 17β-[2-(Amidino)]hydrazinomethyl-5β-androstane-3β,14β-diol]	6.9				
C[C@]12CC[C@H](O)C[C@H]1CC[C@@H]1[C@@H]2CC[C@]2(C)[C@@H](CNNC3=NCCN3)CC[C@]12O [Comp. I-ab, 17β-[2-(2-Imidazolin-2-yl)]hydrazinomethyl-5β-androstane-3β,14β-diol]	6.6	3.16			
CN1CCN=C1NNC[C@H]1CC[C@]2(O)[C@@H]3CC[C@@H]4C[C@@H](O)CC[C@]4(C)[C@H]3CC[C@]12C [Comp. I-ac, 17β-[2-(1-Methyl-2-imidazolin-2-yl)]hydrazinomethyl-5β-androstane-3β,14β-diol]	6.0		10		
C[C@]12CC[C@H](O)C[C@H]1CC[C@@H]1[C@@H]2CC[C@]2(C)[C@@H](CNNC3=NCCCN3)CC[C@]12O [Comp. I-ad, 17β-[2-(1,4,5,6-Tetrahydro-2-pyrimidinyl)]hydrazinomethyl-5β-androstane-3β,14β-diol]	6.5		3.98		
CN(C)CCNC(=N)NNC[C@H]1CC[C@]2(O)[C@@H]3CC[C@@H]4C[C@@H](O)CC[C@]4(C)[C@H]3CC[C@]12C [Comp. I-ae, 17β-{2-[N-(2-Dimethylaminoethyl)amidino]}hydrazinomethyl-5β-androstane-3β,14β-diol]	5.4		31.6		
C[C@]12CC[C@H](O)C[C@H]1CC[C@@H]1[C@@H]2CC[C@]2(C)[C@@H](CNNC(=N)Nc3ccccc3)CC[C@]12O [Comp. I-af, 17β-[2-(N-Phenylamidino)]hydrazinomethyl-5β-androstane-3β,14β-diol]	5.0		63.1		
CC(NNC(=N)N)[C@H]1CC[C@]2(O)[C@@H]3CC[C@@H]4C[C@@H](O)CC[C@]4(C)[C@H]3CC[C@]12C (stereo partly drawn) [Comp. I-ag, 20-(2-Amidino)hydrazino-5β-pregnane-3β,14β-diol]	6.5		6.31		
C[C@]12CC[C@H](O)C[C@H]1CC[C@@H]1[C@@H]2CC[C@]2(C)[C@@H](CNO)CC[C@]12O [Comp. I-ah, 17β-Hydroxyaminomethyl-5β-androstane-3β,14β-diol]	5.0		79.4		
CONC[C@H]1CC[C@]2(O)[C@@H]3CC[C@@H]4C[C@@H](O)CC[C@]4(C)[C@H]3CC[C@]12C [Comp. I-ai, 17β-Methoxyaminomethyl-5β-androstane-3β,14β-diol]	5.1				
C[C@]12CC[C@H](O)C[C@H]1CC[C@@H]1[C@@H]2CC[C@]2(C)[C@@H](CNOCCN)CC[C@]12O [Comp. I-aj, 17β-(2-Aminoethoxyamino)methyl-5β-androstane-3β,14β-diol]	7.2		1	150 +/- 4.1 mm Hg	372 +/- 11.7 beats/min.
C[C@]12CC[C@H](O)C[C@H]1CC[C@@H]1[C@@H]2CC[C@]2(C)[C@@H](CNOCCCN)CC[C@]12O [Comp. I-ak, 17β-(3-Aminopropoxyamino)methyl-5β-androstane-3β,14β-diol]	6.9		2.51		
C[C@]12CC[C@H](O)C[C@H]1CC[C@@H]1[C@@H]2CC[C@]2(C)[C@@H](CNOCCCCN)CC[C@]12O [Comp. I-al, 17β-(4-Aminobutoxyamino)methyl-5β-androstane-3β,14β-diol]	6.2				
CN(C)CCCONC[C@H]1CC[C@]2(O)[C@@H]3CC[C@@H]4C[C@@H](O)CC[C@]4(C)[C@H]3CC[C@]12C [Comp. I-an, 17β-(3-Dimethylaminopropoxyamino)methyl-5β-androstane-3β,14β-diol]			63.1		
CN(C)CCCCONC[C@H]1CC[C@]2(O)[C@@H]3CC[C@@H]4C[C@@H](O)CC[C@]4(C)[C@H]3CC[C@]12C [Comp. I-ao, 17β-(4-Dimethylaminobutoxyamino)methyl-5β-androstane-3β,14β-diol]			79.4		
CN(C)CCON(C)C[C@H]1CC[C@]2(O)[C@@H]3CC[C@@H]4C[C@@H](O)CC[C@]4(C)[C@H]3CC[C@]12C [Comp. I-ap, 17β-[N-Methyl-N-(2-dimethylaminoethoxy)amino]methyl-5β-androstane-3β,14β-diol]	5.0	100			
C[C@]12CC[C@H](O)C[C@H]1CC[C@@H]1[C@@H]2CC[C@]2(C)[C@@H](CNOCCNC(=N)N)CC[C@]12O [Comp. I-aq, 17β-(2-Guanidinoethoxyamino)methyl-5β-androstane-3β,14β-diol]	6.0	39.8			
CC(NOCCN(C)C)[C@H]1CC[C@]2(O)[C@@H]3CC[C@@H]4C[C@@H](O)CC[C@]4(C)[C@H]3CC[C@]12C (stereo partly drawn) [Comp. I-ar, 20β-(2-Dimethylaminoethoxyamino)-5β-pregnane-3β,14β-diol]	5.7		63.1		
C[C@]12CC[C@H](O)C[C@H]1CC[C@@H]1[C@@H]2CC[C@]2(C)[C@@H](C=CCNNC(=N)N)CC[C@]12O [Comp. I-as, 17β-{3-[2-(Amidino)]hydrazino-1-propenyl}-5β-androstane-3β,14β-diol]	6.0		31.6		
C[C@]12CC[C@H](O)C[C@H]1CC[C@@H]1[C@@H]2CC[C@]2(C)[C@@H](C=CCNOCCN)CC[C@]12O [Comp. I-at, 17β-[3-(2-Aminoethoxyamino)-1-propenyl]-5β-androstane-3β,14β-diol]	6.7		10		
CN(C)CCONCC=C[C@H]1CC[C@]2(O)[C@@H]3CC[C@@H]4C[C@@H](O)CC[C@]4(C)[C@H]3CC[C@]12C [Comp. I-au, 17β-[3-(2-Dimethylaminoethoxyamino)-1-propenyl]-5β-androstane-3β,14β-diol]	5.9	39.8			
CC(=C[C@H]1CC[C@]2(O)[C@@H]3CC[C@@H]4C[C@@H](O)CC[C@]4(C)[C@H]3CC[C@]12C)CNOCCN(C)C [Comp. I-av, 17β-[3-(2-Dimethylaminoethoxyamino)-2-methyl-1-propenyl]-5β-androstane-3β,14β-diol]	5.7		63.1		
CN(C)CCONCC[C@H]1CC[C@]2(O)[C@@H]3CC[C@@H]4C[C@@H](O)CC[C@]4(C)[C@H]3CC[C@]12C [Comp. I-ax, 17β-[2-(2-Dimethylaminoethoxyamino)ethyl]-5β-androstane-3β,14β-diol]	5.7	39.8			
CN(C)CCONCCC[C@H]1CC[C@]2(O)[C@@H]3CC[C@@H]4C[C@@H](O)CC[C@]4(C)[C@H]3CC[C@]12C [Comp. I-ay, 17β-[3-(2-Dimethylaminoethoxyamino)propyl]-5β-androstane-3β,14β-diol]	5.8	39.8			
CN(C)CCONC[C@@]1(O)CC[C@]2(O)[C@@H]3CC[C@@H]4C[C@@H](O)CC[C@]4(C)[C@H]3CC[C@]12C [Comp. I-ba, 17β-(2-Dimethylaminoethoxyamino)methyl-5β-androstane-3β,14β,17α-diol]	5.2		100		
CN(C)CCONC[C@H]1CC[C@]2(O)[C@@H]3CC[C@@H]4C[C@@H](OCCN)CC[C@]4(C)[C@H]3CC[C@]12C [Comp. I-bc, 3β-(2-Aminoethoxy)-17β-(2-dimethylaminoethoxyamino)methyl-5β-androstane-14β-ol]	6.1	39.8			
CN(C)CCONC[C@H]1CC[C@]2(O)[C@@H]3CC[C@@H]4C[C@@H](OCCN5CCCC5)CC[C@]4(C)[C@H]3CC[C@]12C [Comp. I-bd, 3β-[2-(1-Pyrrolidinyl)ethoxy]-17β-(2-dimethylaminoethoxyamino)methyl-5β-androstane-3β,14β-diol]	6.2		31.6		
CN(C)CCONC[C@H]1CC[C@]2(O)[C@@H]3CC[C@@H]4C[C@@H](OCCCN5CCCC5)CC[C@]4(C)[C@H]3CC[C@]12C [Comp. I-be, 3β-(3-(1-Pyrrolidinyl)propoxy)-17β-(2-dimethylaminoethoxyamino)methyl-5β-androstane-3β,14β-diol]	6.0				
